Data on 23 compounds can be found in patent US8815903B2, “Indole derivative and pharmacologically acceptable salt thereof” (Kissei Pharmaceutical Co., Ltd., priority 2011, dated 2014).

For the assay, the target named is T1, rat EP1 receptor (Rattus norvegicus, UniProt P70597).
T1 construct: expressed in transfected cells
T1 sequence (P70597 1-405): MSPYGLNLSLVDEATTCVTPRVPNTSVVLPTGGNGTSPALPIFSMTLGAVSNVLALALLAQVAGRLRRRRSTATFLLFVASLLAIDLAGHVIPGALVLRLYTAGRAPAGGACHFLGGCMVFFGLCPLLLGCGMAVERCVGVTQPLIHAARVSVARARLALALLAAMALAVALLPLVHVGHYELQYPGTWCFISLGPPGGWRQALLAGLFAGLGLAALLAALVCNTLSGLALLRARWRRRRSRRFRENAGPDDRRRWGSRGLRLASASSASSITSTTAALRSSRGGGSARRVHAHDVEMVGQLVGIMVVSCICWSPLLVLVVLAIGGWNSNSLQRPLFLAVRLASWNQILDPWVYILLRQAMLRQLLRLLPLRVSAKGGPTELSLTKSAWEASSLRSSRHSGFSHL
The experiment in a line: Test for confirmation of EP1 receptor antagonism (inhibition of PGE2-induced increase in intracellular calcium concentration). Type of assay: cell-based. The conditions noted are these: rat EP1 receptor-expressing COS-1 cells; prostaglandin E2 10 nM; fluorescent calcium indicator, FDSS 7000. As to the method:
Test for Confirmation of EP1 Receptor Antagonism
(1) Preparation of Rat EP1 Expression Vector
Using Rat Kidney BD Marathon-Ready cDNA (Nippon Becton Dickinson Company, Ltd.) as a template, a forward primer shown in (SEQ ID NO:1), and a reverse primer shown in (SEQ ID NO:2), a first run of PCR was carried out using KOD-Plus-Ver 2.0 (Toyobo Co., Ltd.). Further, using this amplification product as a template, a forward primer shown in (SEQ ID NO:3), and a reverse primer shown in (SEQ ID NO:4), a second run of PCR was carried out in the same manner. The amplification product obtained by the second run of PCR was incorporated into a vector (pcDNA3.1 D/V5-His-TOPO (registered trademark), Invitrogen Japan K. K.). By a conventional method, the vector containing this amplification product was introduced to E. coli (One Shot TOP 10 Competent Cells, Invitrogen Corporation) to transform. This transformed E. coli was cultured in an LB agar medium for one day. After the culture, colonies were selected and cultured in an LB liquid medium containing 50 μg/mL of ampicillin. After the culture, the vector was purified using a QIAprep Spin Miniprep Kit (Qiagen K. K.). The base sequence of the insertion site of this vector (SEQ ID NO:5) was compared with the rat EP1 base sequence (Ptger1) registered as Accession No. NM_013100 in publicly-known database (NCBI), and as a result, they all matched except for a single base. Further, the amino acid sequence translated by the base sequence completely matched the amino acid sequence of the rat EP1 receptor registered as an NCBI Accession No. NP_037232. Therefore, it was confirmed that the cloned gene sequence was a base sequence of the rat EP1 receptor and the obtained amino acid sequence was that of the rat EP1 receptor. The pcDNA3.1 D/V5-His-TOPO (registered trademark) to which the nucleic acid shown in (SEQ ID NO:5) had been inserted was taken as a rat EP1-expressing vector.
(2) Preparation of Rat EP1 Receptor-Expressing Cells
COS-1 cells (Dainippon Sumitomo Pharma Co., Ltd.) were cultured until they reached confluence in an incubator at 37° C. under a 5% CO2 gas condition, using a D-MEM liquid medium (high glucose and L-glutamine contained, Invitrogen Corporation) to which a penicillin-streptomycin solution (Invitrogen Corporation, final concentration: 100 U/mL as benzylpenicillin; 100 μg/mL as streptomycin) as an antibiotic, MEM nonessential amino acids (Invitrogen Corporation, final concentration: 0.1 mM), and fetal calf serum (Sanko Junyaku Co., Ltd., final concentration: 10%) were added.
The cells that had reached confluence were stripped with 0.05% trypsin/0.53 mM EDTA.4Na, and resuspended in a D-MEM liquid medium (high glucose and L-glutamine contained, Invitrogen Corporation) to which an MEM nonessential amino acid (final concentration: 0.1 mM) and fetal calf serum (final concentration: 10%) were added. In each well of a Poly D-lysine-coated 96-well microplate (BD BioCoat (registered trademark), Nippon Becton Dickinson Company, Ltd.), this resuspended cell suspension culture was prepared to be 5×10^4 cells/well in 100 μL of the liquid medium, and 100 μL of the cell suspension was seeded on each well. After seeding, the cells were cultured in an incubator at 37° C. under a 5% CO2 gas condition. At a point when the cells for introduction of a rat EP1-expressing vector were adhered (about 2 hours after seeding), introduction of the rat EP1-expressing vector was carried out in the following order.
For introduction of the rat EP1-expressing vector, Lipofectamine 2000 (Invitrogen Japan K. K.) was used. The rat EP1-expressing vector was diluted with OPTI-MEM (registered trademark) I Reduced-Serum Medium (Invitrogen Japan K. K.) to 200 ng/25 μL/well, and at the same time, Lipofectamine 2000 (Invitrogen Japan K. K.) was also diluted with OPTI-MEM (registered trademark) I Reduced-Serum Medium (Invitrogen Japan K. K.) to 0.5 μL/25 μL/well, followed by incubation at room temperature for 5 minutes. […]
In general terms: Calcium assays in cells follow changes in intracellular calcium, usually with a dye or a luminescent sensor.

In general, IC50 refers to the concentration needed to halve the response being measured. Regarding `COc1cc2[nH]c(-c3ccccc3)c(Cc3cccc(-c4nnn[nH]4)n3)c2cc1F` [Example 5-8], the IC50 was found to be 12 nM.
Consider `CCS(=O)(=O)NC(=O)c1cccc(Cc2c(-c3csc(C)c3)[nH]c3cc(OC)ccc23)n1` [Example 3-21], for which the 50% inhibitory concentration (IC50) was 86 nM.
With `COc1ccc2c(Cc3cccc(C(=O)NS(=O)(=O)c4ccccc4)n3)c(C(C)(C)C)[nH]c2c1` [Example 3-11], the IC50 came out at 17 nM.
As to `CCS(=O)(=O)NC(=O)c1cccc(Cc2c(C(C)(C)C)[nH]c3cc(OC)c(Cl)cc23)n1` [Example 3-7], the IC50 was 33 nM.
Under `COc1cc2[nH]c(-c3ccccc3)c(Cc3cccc(C(=O)NS(=O)(=O)C4CC4)n3)c2cc1F` [Example 18-4] stands 35 nM.
For `COc1cc2[nH]c(C3(C)CC3)c(Cc3cccc(-c4nnn[nH]4)n3)c2cc1C` [Example 20-4, 6-methoxy-5-methyl-2-(1-methylcyclopropyl)-3-[6-(1H-tetrazol-5-yl)pyridin-2-ylmethyl]-1H-indole], the half-maximal inhibitory concentration (IC50) was 14 nM.
Take `CCS(=O)(=O)NC(=O)c1cccc(Cc2c(-c3ccoc3)[nH]c3cc(OC)ccc23)n1` [Example 3-23]: the concentration for half-maximal inhibition (IC50) came out at 58 nM.
Under `COc1cc2[nH]c(-c3ccccc3)c(Cc3cccc(C(=O)NS(=O)(=O)C(C)C)n3)c2cc1F` [Example 18-3] stands 41 nM.
Under `CCS(=O)(=O)NC(=O)c1cccc(Cc2c(-c3ccc(F)cc3)[nH]c3cc(OC)ccc23)n1` [Example 3-15] stands 27 nM; under `CCCS(=O)(=O)NC(=O)c1cccc(Cc2c(C(C)(C)C)[nH]c3cc(OC)c(Cl)cc23)n1` [Example 3-5], 55 nM.
Under `Cc1ccc2c(Cc3cccc(C(=O)NS(=O)(=O)C(C)C)n3)c(-c3ccsc3)[nH]c2c1` [Example 18-10] stands 26 nM.
Turning to `COc1ccc2c(Cc3cccc(C(=O)NS(C)(=O)=O)n3)c(-c3ccsc3)[nH]c2c1` [Example 1, N-Methanesulfonyl-6-(6-methoxy-2-thiophen-3-yl-1H-indol-3-ylmethyl)pyridine-2-carboxamide], the concentration for half-maximal inhibition (IC50) came out at 99 nM.
Under `COc1ccc2c(Cc3cccc(/C=C/c4nnn[nH]4)n3)c(-c3ccccc3)[nH]c2c1` [Example 19, 6-Methoxy-2-phenyl-3-{6-[(E)-2-(1H-tetrazol-5-yl)vinyl]pyridine-2-ylmethyl}-1H-indole] stands 34 nM; under `Cc1cc2[nH]c(-c3ccccc3)c(Cc3cccc(-c4nnn[nH]4)n3)c2cc1C` [Example 17-3], 20 nM; under `COc1cc2[nH]c(C(C)(C)C)c(Cc3cccc(C(=O)NC#N)n3)c2cc1Cl` [Example 16-5], 46 nM.
Under `COc1ccc2c(Cc3cccc(-c4noc(=O)[nH]4)n3)c(C(C)(C)C)[nH]c2c1` [Example 12-2] stands 43 nM; under `COc1ccc2c(Cc3cccc(-c4noc(=S)[nH]4)n3)c(-c3ccccc3)[nH]c2c1` [Example 9, 3-[6-(6-Methoxy-2-phenyl-1H-indol-3-ylmethyl)pyridin-2-yl]-4,5-dihydro-1,2,4-oxadiazole-5-thione], 50 nM; under `COc1ccc2c(Cc3cccc(-c4nnn[nH]4)n3)c(-c3ccc(F)cc3)[nH]c2c1` [Example 5-9], 22 nM.
Take `COc1ccc2c(Cc3cccc(C(=O)NS(=O)(=O)C(C)C)n3)c(-c3ccccc3)[nH]c2c1` [Example 3-13]: the half-inhibitory concentration (IC50) is 27 nM.
The same measure for `CCCS(=O)(=O)NC(=O)c1cccc(Cc2c(-c3ccccc3)[nH]c3cc(OC)c(F)cc23)n1` [Example 18-5]: 32 nM; for `COc1cc2[nH]c(-c3ccccc3)c(Cc3cccc(C(=O)NS(=O)(=O)c4ccccc4)n3)c2cc1F` [Example 18-11]: 27 nM.
Under `COc1ccc2c(Cc3cccc(C(=O)NS(=O)(=O)c4ccccc4)n3)c(-c3ccccc3)[nH]c2c1` [Example 3-3] stands 30 nM; under `CCS(=O)(=O)NC(=O)c1cccc(Cc2c(-c3ccccc3)[nH]c3cc(C4CC4)ccc23)n1` [Example 3-33], 66 nM.
